According to PMC12608337 (Molecules, 2025):

Assays:
wt-YFV = type: cell-based, yellow fever virus
in vitro = settings: African green monkey (Cercopithecus aethiops)
[1] = system: herpes simplex virus (type 1); settings: cited from earlier work
Spodoptera littoralis = settings: cited from earlier work
[2] = system: dengue virus type 2 (DENV-2); settings: cited from earlier work
ZIKV = settings: mouse, in vivo; cited from earlier work
Zika virus (ZIKV) = settings: cited from earlier work

N=C(N)NCCC[C@H](N)C(=O)O [arginine]
antiviral activity against wt-YFV (wt-YFV): did not reveal significant antiviral activity | CC50 (in vitro): ~1000 µM

C[n+]1cccc(C(=O)[O-])c1 [Trigonelline, trigonelline]
antiviral activity against wt-YFV (wt-YFV): did not reveal significant antiviral activity | inhibition of survival of herpes simplex virus (type 1) [1]: significantly inhibited the survival | CC50 (in vitro): ~1000 µM

N[C@@H](Cc1c[nH]c2ccccc12)C(=O)O [tryptophan]
antiviral activity against wt-YFV (wt-YFV): did not reveal significant antiviral activity | CC50 (in vitro): 578 µM

NC(=O)C[C@H](N)C(=O)O [asparagine]
antiviral activity against wt-YFV (wt-YFV): did not reveal significant antiviral activity | CC50 (in vitro): ~1000 µM

COc1cc2c(cc1OC)[C@@H]1[C@H](O)[C@@H](OC)[C@H](OC(C)=O)C3=CCN(C2)[C@H]31 [3-O-acetyl-narcissidine, 3-O-acetylnarcissidine]
antifeedant effect (Spodoptera littoralis): exhibited an antifeedant effect

N[C@@H](CCC(=O)O)C(=O)O [glutamic acid]
antiviral activity against wt-YFV (wt-YFV): did not reveal significant antiviral activity

O[C@H]1[C@H]2c3cc4c(cc3CN3CCC(=C[C@@H]1O)[C@H]23)OCO4 [lycorine]
antiviral activity against DENV-2 [2]: exhibits antiviral activity | mortality (ZIKV): reduced mortality | viral load in the blood (ZIKV): lower viral load in the blood | antiviral activity against ZIKV (Zika virus (ZIKV)): exhibits antiviral activity

COc1c2c(cc3c1OCO3)[C@@]13CCN(C2)[C@@H]1CC[C@H](O)[C@@H]3O [Bulbisine, bulbisine]
antiviral activity against wt-YFV (wt-YFV): did not reveal significant antiviral activity | CC50 (in vitro): 123 µM
